Data taken from patent publication US20260014125A1, “BICYCLIC-TYPE MAT2A INHIBITOR AND USE THEREOF” (HAIHE BIOPHARMA CO., LTD., priority 2022, published 2026).
pIC50: −log10 of the molar value.

Experiments:
MAT2A = MAT2A (Homo sapiens (Human), UniProt P31153); experiment: Biochemical test: inhibition of MAT2A enzyme activity (phosphate detection, OD620); conditions: MAT2A his-tag; 150 minutes enzymatic reaction
Source text: Experimental principle: MAT2A can catalyze the conversion of L-methionine and ATP into SAM, inorganic phosphate, and inorganic diphosphate. By adding a chromogenic reagent to the enzymatic reaction system, the content of inorganic phosphates in a sample can be quantitatively detected, thereby characterizing the enzymatic activity of MAT2A.
Experimental material: Tris (Life Science #0497); BSA (Sigma #); MAT2A his-tag (BPS #71401-1); 384 well plate (Corning #3765); L-methionine (Admas #1100469); ATP (Sigma #A7699); MgCl2 (Sigma #M8266); KCl (Sigma #7447-40-7); Brij35 (Sigma #B4184); EDTA (Sigma #E1644)
1. 1×Assaybuffer (buffer composition: Tris, KCl, MgCl2, BSA, Brij35, and EDTA; the solvent was ultrapure water) was prepared. MAT2A his-tag enzyme solution (containing 1.3 μL of MAT2A enzyme and 998.7 μL of 1×Assaybuffer per 1000 μL) and substrate mixed solution (containing 5 μL of ATP, 1.3 μL of L-methionine, and 993.7 μL of 1×Assaybuffer per 1000 μL) were prepared using 1×AssayBuffer.
2. Preparation of compound concentration gradient: The test compound was tested with a starting concentration of 10 μM, and 10 equimolar concentrations were set according to a 3-fold dilution. Specifically, firstly, the compound was diluted into 10 different concentrations of series solutions in a 384 well plate (with final detection concentrations of 10, 3.33, 1.11, 0.37, 0.123, 0.041, 0.0137, 0.0046, 0.0015, and 0.0005 μM), and then 250 nL of the above series solutions was transferred to the 384 well reaction plate using an ultrasonic pipetting system Echo550 for later use. 250 nL of 100% DMSO was added into a negative control well and a positive control well, respectively. Double well test.
3. 15 μL of MAT2A his-tag enzyme solution was added into both the compound well and the positive control well; and 15 μL of 1×Assaybuffer was added into the negative control well.
4. The 384 well plate reaction plate was centrifuged at 1000 rpm for 60 seconds, shaken, mixed well, and incubated for 15 minutes. 10 μL of substrate mixed solution was added into each experimental well of the 384 well reaction plate to initiate the reaction.
5. The 384 well reaction plate was centrifuged at 1000 rpm for 60 seconds, shaken, mixed well, and incubated for 150 minutes.
6. 50 μL of enzyme reaction termination solution Biomol was added into all experimental wells of the 384 well reaction plate to terminate the reaction, centrifuged at 1000 rpm for 60 seconds, and incubated for 15 minutes. OD620 was read and data was processed.
Data analysis: the inhibition rate (%) of the compound was calculated and fitted to obtain the IC50 of the tested compound. Calculation method for compound inhibition rate: Compound inhibition rate (%)=(OD620_max−OD620_stample)/(OD620_max−OD620_min)×100, wherein OD620_stample was the absorbance value of the sample well; OD620 min was the absorbance value of the positive control well, indicating the reading of the wells without enzyme activity; and OD620_max was the absorbance value of the negative control well, indicating the reading of the well without compound inhibition.

KP-4 cells = experiment: Human pancreatic cancer KP-4 cell activity inhibition test (CellTiter-Glo); type: cell-based; conditions: 5 days
Method: Experimental principle: after co-incubating the MAT2A inhibitor to be tested with KP-4 cells for a period of time, a cell viability measurement method based on ATP content is used to characterize the effect of the tested compound on cell viability.
Experimental material: KP-4 cells (JCRB #JCRB0182); IMDM (Gibco 912440061); fetal bovine serum (EXCELL #FND500); penicillin-streptomycin (Gibco #15140-122); 0.25% Typsin-EDTA (Gibco #252(101-072); DMSO (Sigma #D2650); 96 well plate (Corning #3610); CellTiter-Glo (Promega #G7571)
1. KP-4 cells were cultured in IMDM culture medium containing 10% e fetal bovine serum and 1% penicillin-streptomycin at 37° C. and 5% CO2 in a cell culture incubator. Only cells in logarithmic growth phase were used for subsequent experiments.
2. The cells in logarithmic growth phase were inoculated into a 96 well plate, with a seeding quantity of 500 cells per well, and incubated overnight in a cell culture incubator at 37′C and 5% CO2.
3. The compound was dissolved with DMSO, diluted with culture medium to 10 different concentrations (approximately […]), 3333.3, 1111.1, 370, 123, 41.2, 13.7, 4.6, 1.5, and 0.5 nM) before adding it to the cell plate, and cultured at 37° C. and 5% CO2 for 5 days.
4. CellTiter-Glo reagent was added, and an enzyme-linked immunosorbent assay reader was used to detect cell viability.
Data analysis: the inhibition rate (%) of the compound was calculated and fitted to obtain the IC50 of the tested compound. Calculation method for compound inhibition rate: Compound inhibition rate (%)=(Signal_max−Signal_sample)/(Signal_max−Signal_min)×100, wherein Signal_sample was the sample well reading, indicating the cell activity of the compound inhibition well; Signal_min was the positive control well reading, indicating the background activity without cells; and Signal_max was the negative control well reading, indicating the cell activity of the well without compound inhibition.

Sequence of MAT2A (P31153 whole entry): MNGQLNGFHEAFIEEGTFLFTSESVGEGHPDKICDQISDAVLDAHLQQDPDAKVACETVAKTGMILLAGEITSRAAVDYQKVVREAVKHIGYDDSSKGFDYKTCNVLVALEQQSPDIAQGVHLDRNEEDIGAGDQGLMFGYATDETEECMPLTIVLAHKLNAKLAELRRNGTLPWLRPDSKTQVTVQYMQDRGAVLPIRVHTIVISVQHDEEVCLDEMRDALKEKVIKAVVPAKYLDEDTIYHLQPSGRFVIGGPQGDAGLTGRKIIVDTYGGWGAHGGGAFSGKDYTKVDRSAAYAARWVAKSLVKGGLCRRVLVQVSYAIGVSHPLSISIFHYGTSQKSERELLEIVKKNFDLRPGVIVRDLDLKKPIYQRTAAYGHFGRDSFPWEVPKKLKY

Row | SMILES | pIC50 (MAT2A) | pIC50 (KP-4 cells; Homo sapiens, 120 h) | pIC50 (KP-4 cells)
1 | CCNc1c(-c2ccc(OC(F)F)cc2)c(=O)n(-c2ccc3nn(C)cc3c2)c2[nH]ncc12 [Compound 9] | 7.82 | 7.61 | 
2 | CCNc1c(-c2ccc(OC(F)F)cc2)c(=O)n(-c2ccc3nn(C)cc3n2)c2[nH]ncc12 [Compound 129] | 7.75 | 7.63 | 
3 | CCOc1c(-c2ccc(Cl)cc2)c(=O)n(-c2ccc3nn(CCN(C)C)cc3c2)c2[nH]ncc12 [Compound 111] | 7.76 | 7.20 | 
4 | CCOc1c(-c2ccc(Cl)cc2)c(=O)n(-c2ccc3nn(C4COC4)cc3c2)c2[nH]ncc12 [Compound 90] | 7.74 | 7.49 | 
5 | CCOc1c(-c2ccc(OC)cc2)c(=O)n(-c2ccc3ncn(C)c3c2)c2[nH]ncc12 [Compound 15] | 7.82 | 6.80 | 
6 | CCOc1c(-c2ccc(F)cc2)c(=O)n(-c2ccc3nn(C)cc3c2)c2[nH]ncc12 [Compound 17] | 7.86 | 7.74 | 
7 | COc1ccc(-c2c(OCC(F)(F)F)c3cn[nH]c3n(-c3ccc4nn(C)cc4c3)c2=O)cn1 [Compound 29] | 7.91 | 7.87 | 
8 | CCNc1c(-c2ccc(OC)cc2)c(=O)n(-c2ccc(=O)n(C)c2)c2[nH]ncc12 [Compound 7] | 7.45 | < 5.00 | 
9 | CCOc1c(-c2ccc(Cl)cc2)c(=O)n(-c2ccc3nn(C)cc3c2)c2nn(C)cc12 [Compound 134] | 7.72 | 8.21 | 
10 | CCOc1c(-c2ccc(OC)nc2)c(=O)n(-c2ccc3nn(C)cc3c2)c2[nH]ncc12 [Compound 126] | 7.90 | 7.42 | 
11 | CCOc1c(-c2ccc(C)cc2)c(=O)n(-c2ccc3nn(C)cc3c2)c2[nH]ncc12 [Compound 117] | 7.76 | 7.63 | 
12 | Cn1cc2cc(-n3c(=O)c(-c4ccc(C(F)(F)F)nc4)c(NCC4CC4)c4cn[nH]c43)ccc2n1 [Compound 108] | 7.76 | 7.18 | 
13 | CCOc1c(-c2ccc(OC(F)F)cc2)c(=O)n(-c2ccc3ncn(C)c3c2)c2[nH]ncc12 [Compound 22] | 7.80 |  | 7.55
14 | CCOc1c(-c2ccc(Cl)cc2)c(=O)n(-c2ccc3nn(C)cc3c2)c2cn[nH]c12 [Compound 55] | 7.78 | 8.60 | 
15 | CCOc1c(-c2ccc(C(F)(F)F)nc2)c(=O)n(-c2ccc3nn(C4COC4)cc3c2)c2[nH]ncc12 [Compound 92] | 7.72 | 6.55 | 
16 | CCOc1c(-c2ccc(OC(F)F)cc2)c(=O)n(-c2ccc3nn(C4COC4)cc3c2)c2[nH]ncc12 [Compound 37] | 7.96 | 7.44 | 
17 | CCNc1c(-c2ccc(OC)cc2)c(=O)n(-c2ccc(OC)cc2)c2[nH]ncc12 [Compound 10] | 7.69 | 6.21 | 
18 | CCOc1c(-c2ccc(OC(F)F)cc2)c(=O)n(-c2ccc3nn(C4CNC4)cc3c2)c2[nH]ncc12 [Compound 38] | 7.73 | 6.83 | 
19 | CCOc1c(-c2ccc(Cl)cc2)c(=O)n(-c2ccc3nn(C)nc3n2)c2[nH]ncc12 [Compound 137] | 7.77 | 6.37 | 
20 | CCOc1c(-c2ccc(Cl)cc2)c(=O)n(-c2ccc3nnn(C)c3c2)c2[nH]ncc12 [Compound 128] | 8.07 | 8.92 | 
21 | CCOc1c(-c2cnc(C(F)(F)F)nc2)c(=O)n(-c2ccc3nn(C)cc3c2)c2[nH]ncc12 [Compound 124] | 7.74 | 6.63 | 

Row | SMILES | pIC50 (MAT2A) | pIC50 (KP-4 cells; Homo sapiens, 120 h) | pIC50 (KP-4 cells)
22 | Cn1cc2cc(-n3c(=O)c(-c4ccc(F)cc4)c(OCC(F)(F)F)c4cn[nH]c43)ccc2n1 [Compound 49] | 7.75 | 7.24 | 
23 | Cn1cc2nc(-n3c(=O)c(-c4ccc(Cl)cc4)c(NCC4CC4)c4cn[nH]c43)ccc2n1 [Compound 107] | 7.78 | 7.14 | 
24 | Cn1cc2cc(-n3c(=O)c(-c4ccc(C5CC5)nc4)c(OCC(F)(F)F)c4cn[nH]c43)ccc2n1 [Compound 53] | 7.80 | 7.71 | 
25 | CCOc1c(-c2ccc(Cl)cc2)c(=O)n(-c2ccc3ncn(C)c3c2)c2[nH]ncc12 [Compound 33] | 7.83 | 7.38 | 
26 | CCOc1c(-c2ccc(Cl)cc2)c(=O)n(-c2ccc3nn(CCN(C)C)cc3n2)c2[nH]ncc12 [Compound 132] | 7.78 | 6.80 | 
27 | CCNc1c(-c2ccc(Cl)cc2)c(=O)n(-c2ccc3nn(C)cc3n2)c2[nH]ncc12 [Compound 105] | 7.71 | 7.23 | 
28 | CCOc1c(-c2ccc(C(F)(F)F)nc2)c(=O)n(-c2ccc3nn(CC)cc3c2)c2[nH]ncc12 [Compound 102] | 7.69 | 7.39 | 
29 | CCOc1c(-c2ccc(C3CC3)nc2)c(=O)n(-c2ccc3nn(C)cc3c2)c2[nH]ncc12 [Compound 47] | 7.83 | 8.18 | 
30 | CCOc1c(-c2ccc(Cl)cc2)c(=O)n(-c2ccc3nn(C)cc3n2)c2[nH]ncc12 [Compound 84] | 7.68 | 7.60 | 
31 | CCNc1c(-c2ccc(Cl)cc2)c(=O)n(-c2ccc3nn(C)cc3c2)c2[nH]ncc12 [Compound 11] | 7.85 | 8.31 | 
32 | Cn1cc2cc(-n3c(=O)c(-c4ccc(F)cc4)c(OCC4CC4)c4cn[nH]c43)ccc2n1 [Compound 51] | 7.80 | 7.45 | 
33 | Cn1cc2cc(-n3c(=O)c(-c4ccc(Cl)cc4)c(NCC(F)(F)F)c4cn[nH]c43)ccc2n1 [Compound 63] | 7.74 | 8.62 | 
34 | Cn1cc2cc(-n3c(=O)c(-c4ccc(Cl)cc4)c(NCC4CC4)c4cn[nH]c43)ccc2n1 [Compound 123] | 7.93 | 8.43 | 
35 | CCOc1c(-c2ccc(Br)cc2)c(=O)n(-c2ccc3nn(C)cc3c2)c2[nH]ncc12 [Compound 54] | 7.89 | 7.72 | 
36 | Cn1cc2cc(-n3c(=O)c(-c4ccc(Cl)cc4)c(OCC(F)(F)F)c4cn[nH]c43)ccc2n1 [Compound 28] | 7.82 | 8.28 | 
37 | Cc1ccc(-c2c(OCC(F)(F)F)c3cn[nH]c3n(-c3ccc4nn(C)cc4c3)c2=O)cn1 [Compound 52] | 7.75 | 8.05 | 
38 | CCOc1c(-c2ccc(F)c(F)c2)c(=O)n(-c2ccc3nn(C)cc3c2)c2[nH]ncc12 [Compound 118] | 7.80 | 6.87 | 
39 | CCOc1c(-c2ccc(OC(F)F)cc2)c(=O)n(-c2ccc3nn(CC)cc3c2)c2[nH]ncc12 [Compound 19] | 7.78 |  | 8.13
40 | CCOc1c(-c2ccc(OC(F)F)cc2)c(=O)n(-c2ccc3nn(CCO)cc3c2)c2[nH]ncc12 [Compound 20] | 8.01 |  | 6.65
41 | CCOc1c(-c2ccc(Cl)cc2)c(=O)n(-c2ccc3nn(C)nc3c2)c2[nH]ncc12 [Compound 127] | 7.91 | 8.05 | 
42 | Cn1cc2cc(-n3c(=O)c(-c4ccc(C(F)(F)F)nc4)c(OCC4CC4)c4cn[nH]c43)ccc2n1 [Compound 104] | 7.80 | 8.08 | 
